# Where two headings read alike, the source gives them in different places.
# Tests used:
# [1] = tested on: Streptococcus pneumoniae; test: Antibiotic assay (resazurin, Example 1), Streptococcus pneumoniae; type: cell-based; settings: for IC50: read-out: IC50
# Protocol: (§1) Bacteria Strain. […] The MRSA were obtained as further described below.
# (§2) Antibiotic agents. Cyprofloxacin and erythromycin were provided by Sigma-Aldrich. Gentamicin sulfate and vancomycin hydrochloride were provided by Calbiochem.
# (§3) Five additional strains were tested: Streptococcus pneumoniae, Streptococcus agalactiae, Streptococcus pyogenes, Enterococcus faecalis and Corynebacterium jeikeium.
# [2] = tested on: Streptococcus pyogenes; test: Antibiotic assay (resazurin, Example 1), Streptococcus pyogenes; type: cell-based; settings: for IC50: read-out: IC50
# Protocol: as §1, §2, §3
# [3] = tested on: Streptococcus agalactiae; test: Antibiotic assay (resazurin, Example 1), Streptococcus agalactiae; type: cell-based; settings: for IC50: read-out: IC50
# Protocol: as §1, §2, §3
# [4] = tested on: methicillin-resistant Staphylococcus aureus (MRSA) strains; test: Antibiotic assay (resazurin, Example 1), MRSA strains; type: cell-based; settings: for IC50: read-out: IC50
# Text: as §1, §2
# Isolation and identification of methicillin-resistant Staphylococcus aureus (MRSA) strains. From March 2007 to March 2008, 35 screening swabs from nares (n=31), throat (n=3), Groin pus (n=1) were obtained from patients hospitalized at Chicoutimi hospital. Identification of S. aureus was performed using the Slidex Staph-Kit (bioMerieux Vitek, Inc., Hazelwood, Mo.) according to the manufacturer's instructions. Quality control was performed with MRSA strain ATCC 43300 and S. aureus strain ATCC 25923. In addition, S. aureus profile was determined with API Staph test strip with bacterial suspension of saline McFarland of 0.5 (bioMerieux, Durham, N.C.) according to the manufacturer's protocol. API Staph strips were held for 24 h before the results were read. A latex agglutination (SLIDEX) test detecting methicilin resistance in Staphylococci based on the production of low-affinity PBP2a, which is encoded by the mecA gene was performed on all strains. An antibiogram was also performed to confirm the identification of MRSA strains using disk diffusion test.
# Antibiotic susceptibility testing using disk diffusion method. The antimicrobial activity of different classes of antibiotics of the potential MRSA was determined by diffusion method (Kirby-Bauer) as described by NCCLS. The antibiotics tested included: penicillin (10 units), amoxicillin/clavulanic acid (20/10 μg), ciprofloxacin (5 μg), moxifloxacin (5 μg), levofloxacin (5 μg), clindamycin (15 μg), erythromycin (15 μg), cefoxitin (30 μg), linezolid (30 μg), trimethoprim/sulfomethoxazole (1.25/23.75 μg), rifampicin (5 μg), gentamicin (10 μg) and vancomycin (30 μg). The agar medium had pH 7.2 to 7.4 before inoculing potentiel MRSA. The antibiotics were maintained at 8° C. or lower −14° C. according to manufacturer's recommendations. The pure culture was inoculated on a non-selective plate for 18-24 h. Each colony was collected with a wire loop and transfered the growth to a tube containing 4 to 5 mL of a tryptic-soy broth. The inoculum density was standarized with BaSO4 using 0.5 McFarland standard. All strains were incubated at 37° C. until it achieves or exceeds the turbidity of 0.5 McFarland standard. Inoculation of the dried surface (Muller-Hinton agar plate) by streaking the swab over the entire sterile agar surface. This procedure was repeated two more times. After 15 min, the appropriate disk were applied on the surface with a sterile forceps. The inverted plates was placed in a incubator at 37° C./air/16 to 18 h or 24 h for vancomycin. The inhibition zones were measured with a millimetric ruler. Interpretation of zone sizes by references of the manufacturer. Quality control organisms used were ATCC strains number 25923.
# (§4) MRSA. Ten (10) strains of MRSA obtained as described above were tested along with an S. aureus wild type (WT) strain (ATCC25923).
# [5] = tested on: Corynebacterium jeikeium; test: Antibiotic assay (resazurin, Example 1), Corynebacterium jeikeium; type: cell-based; settings: Coryne. jeikeium 14139
# Protocol: as §1, §2, §3
# [6] = tested on: WS-1 cell lines; test: Cytotoxicity assay on WS-1 (Example 1); settings: Table 5; WS-1, 48 h
# Protocol: Cytotoxicity assay. The cytotoxicity assay was performed in 96-well plates (BD Falcon). The WS-1 cell lines were provided by ATCC. The WS-1 was cultured in DMEM+10% fetal calf serum. The cells were plated in a volume of 100 μL at a density of 5000 cells per well and incubated at 37° C.+5% CO2 for 24 h to promote cell adhesion.
# The plates were incubated at 37° C.+5% CO2 for 48 h. The cells were then washed with 100 μL of HBSS and 150 μL of a 2% resazurin were added to the wells.
# The therapeutic index is the ratio between the toxicity on normal cells, in this case fibroblast, and the toxicity on bacteria.
# [7] = tested on: S. aureus wild type strain (ATCC 25923); test: Antibiotic assay (resazurin, Example 1), S. aureus wild type; type: cell-based, Staphylococcus aureus
# Protocol: as §1, §2, §4
# [8] = tested on: Enterococcus faecalis; test: Antibiotic assay (resazurin, Example 1), Enterococcus faecalis; type: cell-based; settings: for IC50: read-out: IC50
# Protocol: as §1, §2, §3
# [9] = tested on: S. epidermidis; test: Antibiotic assay (resazurin, Example 1), S. epidermidis strains
# Protocol: The antibiotic assays were performed in 96-well plates (BD Falcon). The bacteria strains were inoculated in Nutrient Broth (BD) for the gram negative bacteria and Tryptic soy broth (BD) with 10% of defibrinated sheep blood (PML microbiological) for gram positive strain. All bacteria strains were dosed by spectrophotometry at 660 nm where 1 D.O=2×10^8 bacteria/mL. All bacteria were plated in their respective broth at a concentration of 450 000 bacteria/mL.
# Compounds I, II and III were diluted in methanol and the above-noted antibiotic agents were diluted in water. The solvent concentration was 0.25%, which was not toxic for the bacteria. Compounds I, II and III and the above-noted antibiotic agents were tested at 8 different concentrations.
# Each well contained: 100 μL of bacteria, 50 μL of the compounds tested (compound I, II, III or the above-noted antibiotic agent) and 50 μL of a 4% resazurin (Sigma) solution. The plates were incubated at 37° C. for 5 h. The fluorescence was read using a Fluoroskan Ascent™ FL (thermo) using an excitation wavelength of 530 nm and an emission wavelength of 590 nm.
# Two different strains of Staphylococcus were tested, namely the S. epidermidis and the S. aureus strains.
compound,measurement,setting,value
COc1ccc(CCC(=O)c2c(O)cc(O)c(C/C=C/c3ccc(O)cc3)c2O)cc1 [Compound II],Minimum Inhibitory Concentration (MIC),[1]; Strep. pneumoniae 14070,(122) μM
same,IC50,[1]; Strep. pneumoniae 14070,54 ± 4 µM
same,Minimum Inhibitory Concentration (MIC),[1]; Strep. pneumoniae 14112,(169) μM
same,IC50,[1]; Strep. pneumoniae 14112,74 ± 6 µM
same,Minimum Inhibitory Concentration (MIC),[1]; Strep. pneumoniae 14138,(>200) μM
same,IC50,[1]; Strep. pneumoniae 14138,> 200 µM
same,Minimum Inhibitory Concentration (MIC),[1]; Strep. pneumoniae 14144,(>200) μM
same,IC50,[1]; Strep. pneumoniae 14144,> 200 µM
same,Minimum Inhibitory Concentration (MIC),[1]; Strep. pneumoniae 14148,(200) μM
same,IC50,[1]; Strep. pneumoniae 14148,83 ± 7 µM
same,activity against Streptococcus pneumoniae 14070 strain,[1]; in words,active
same,activity against Streptococcus pneumoniae strain 14144,[1]; in words,not active
same,Minimum Inhibitory Concentration (MIC),[2]; Strep. pyogenes 14149,(>200) μM
same,IC50,[2]; Strep. pyogenes 14149,> 200 µM
same,Minimum Inhibitory Concentration (MIC),[2]; Strep. pyogenes 14152,(>200) μM
same,IC50,[2]; Strep. pyogenes 14152,90 ± 7 µM
same,activity against Streptococcus pyogenes strain 14152,[2]; in words,active
same,Minimum Inhibitory Concentration (MIC),[3]; Strep. agalactiae 14150,(>200) μM
same,IC50,[3]; Strep. agalactiae 14150,169 ± 3 µM
same,Minimum Inhibitory Concentration (MIC),[3]; Strep. agalactiae 14151,(>200) μM
same,IC50,[3]; Strep. agalactiae 14151,> 200 µM
same,Minimum Inhibitory Concentration (MIC),[3]; Strep. agalactiae 14153,(>200) μM
same,IC50,[3]; Strep. agalactiae 14153,> 200 µM
same,activity against Streptococcus agalactiae strain 14150,[3]; in words,active
same,Minimum Inhibitory Concentration (MIC),[4]; MRSA 1,(5.34) μM
same,IC50,[4]; MRSA 1,2.5 ± 0.2 µM
same,Minimum Inhibitory Concentration (MIC),[4]; MRSA 2,(5.57) μM
same,IC50,[4]; MRSA 2,2.6 ± 0.2 µM
same,Minimum Inhibitory Concentration (MIC),[4]; MRSA 3,(5.29) μM
same,IC50,[4]; MRSA 3,2.6 ± 0.2 µM
same,Minimum Inhibitory Concentration (MIC),[4]; MRSA 4,(4.61) μM
same,IC50,[4]; MRSA 4,2.4 ± 0.1 µM
same,Minimum Inhibitory Concentration (MIC),[4]; MRSA 5,(4.86) μM
same,IC50,[4]; MRSA 5,2.3 ± 0.4 µM
same,Minimum Inhibitory Concentration (MIC),[4]; MRSA 6,(5.22) μM
same,IC50,[4]; MRSA 6,2.3 ± 0.2 µM
same,Minimum Inhibitory Concentration (MIC),[4]; MRSA 7,(4.34) μM
same,IC50,[4]; MRSA 7,2.5 ± 0.2 µM
same,Minimum Inhibitory Concentration (MIC),[4]; MRSA 8,(4.84) μM
same,IC50,[4]; MRSA 8,2.3 ± 0.2 µM
same,Minimum Inhibitory Concentration (MIC),[4]; MRSA 9,(5.26) μM
same,IC50,[4]; MRSA 9,2.5 ± 0.2 µM
same,Minimum Inhibitory Concentration (MIC),[4]; MRSA 10,(5.07) μM
same,IC50,[4]; MRSA 10,3.2 ± 0.2 µM
same,Minimum Inhibitory Concentration (MIC),[5],(112) μM
same,"WS-1 (toxicity on normal cells, fibroblast)",[6],27 ± 4
same,Minimum Inhibitory Concentration (MIC),[7]; S. aureus WT (ATCC 25923),(6.47) μM
same,IC50,"[7]; S. aureus WT (ATCC 25923), read-out: IC50",2.7 ± 0.7 µM
same,IC50,"[7]; Table 5, same values as IC50 of Table 2, read-out: S. aureus WT ATCC 25923 (toxicity on bacteria)",2.7 ± 0.7 µM
same,Minimum Inhibitory Concentration (MIC),[8]; Ent. Faecalis 14078,(>200) μM
same,IC50,[8]; Ent. Faecalis 14078,> 200 µM
same,Minimum Inhibitory Concentration (MIC),[8]; Ent. Faecalis 14115,(>200) μM
same,IC50,[8]; Ent. Faecalis 14115,> 200 µM
same,activity against Enterococcus faecalis,[8]; in words,No activity
same,IC50,[9]; S. epidermidis 14069,5 ± 0.3 µM
same,Minimum Inhibitory Concentration (MIC),[9]; S. epidermidis 14069,(12.7) μM
same,IC50,[9]; S. epidermidis 14085,4.4 ± 0.3 µM
same,Minimum Inhibitory Concentration (MIC),[9]; S. epidermidis 14085,(14.3) μM
same,IC50,[9]; S. epidermidis 14093,7 ± 0.3 µM
same,Minimum Inhibitory Concentration (MIC),[9]; S. epidermidis 14093,(11.2) μM
same,IC50,[9]; S. epidermidis 14134,3.8 ± 0.6 µM
same,Minimum Inhibitory Concentration (MIC),[9]; S. epidermidis 14134,(13.5) μM
same,IC50,[9]; S. epidermidis 14143,5.8 ± 0.2 µM
same,Minimum Inhibitory Concentration (MIC),[9]; S. epidermidis 14143,(10.9) μM
same,activity on S. epidermidis compared with ciprofloxacin,[9]; in words,more active than ciprofloxacin
